Laboratory results published in publication PMC10995865 (Virus Research, 2024).

How the values were obtained:
AsfvPolX-DNA complex = AsfvPolX-DNA complex (African swine fever virus, UniProt P42494); experiment: biochemical; format: binding
AsfvPolX = AsfvPolX (African swine fever virus, UniProt P42494); details: cited from earlier work
Chain of AsfvPolX (P42494 whole entry, looked up): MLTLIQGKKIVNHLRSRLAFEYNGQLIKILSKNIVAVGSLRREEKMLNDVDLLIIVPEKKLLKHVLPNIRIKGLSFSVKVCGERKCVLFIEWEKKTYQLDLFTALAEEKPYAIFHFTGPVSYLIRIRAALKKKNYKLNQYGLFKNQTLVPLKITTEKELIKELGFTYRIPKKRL

Chain of AsfvPolX-DNA complex (P42494 whole entry, looked up, one chain of several): as the sequence (P42494 whole entry, looked up) above

Compound	inhibition at 100 µM (AsfvPolX-DNA complex; read-out: Inhibition of AsfvPolX-DNA complex formation) [%]	Effect on AsfvPolX activity (AsfvPolX)	Inhibition of AsfvPolX-DNA complex formation (AsfvPolX-DNA complex; 100 µM) [%]	Inhibition of AsfvPolX activity (AsfvPolX; 100 µM) [%]
COc1cc(Nc2ncc(F)c(Nc3ccc4c(n3)N(COP(=O)(O)O)C(=O)C(C)(C)O4)n2)cc(OC)c1OC [fostamatinib]	0	dose-dependent decrease	–	–
pentagastrin	–	–	0	60
